Results reported in US9187471B2, “Pyrido [4,3-b] indole and pyrido [3,4-b] indole derivatives and methods of use” (Medivation Technologies, Inc., priority 2010, dated 2015).

Experiments:
[1] = target: T1, Adrenergic α1B (Rattus norvegicus, UniProt P15823); experiment: Adrenergic α1B radioligand binding ([3H]Prazosin); settings: read-out: Adrenergic (0.1 μM) a1B, percent inhibition of specific binding; compound at 0.1 μM; 0.25 nM [3H]Prazosin; Wistar Rat liver
T1 construct: rat adrenergic α1D receptor obtained from Wistar Rat liver; from tissue; host or cells: Wistar rat liver
T1 sequence (P15823 1-515): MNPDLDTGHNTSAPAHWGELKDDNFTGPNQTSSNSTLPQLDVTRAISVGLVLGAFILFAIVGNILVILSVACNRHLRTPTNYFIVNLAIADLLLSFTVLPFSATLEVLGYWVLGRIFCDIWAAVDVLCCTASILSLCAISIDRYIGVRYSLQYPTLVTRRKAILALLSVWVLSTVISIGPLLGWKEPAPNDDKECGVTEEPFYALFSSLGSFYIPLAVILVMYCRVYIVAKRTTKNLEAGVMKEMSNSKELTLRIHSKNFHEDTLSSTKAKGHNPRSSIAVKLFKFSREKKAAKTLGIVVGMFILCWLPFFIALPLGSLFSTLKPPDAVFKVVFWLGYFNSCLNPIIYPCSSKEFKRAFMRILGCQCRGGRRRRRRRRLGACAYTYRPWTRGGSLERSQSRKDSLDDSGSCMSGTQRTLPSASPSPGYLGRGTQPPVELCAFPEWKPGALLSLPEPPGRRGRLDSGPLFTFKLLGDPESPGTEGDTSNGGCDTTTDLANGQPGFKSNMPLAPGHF
Experimental: To evaluate in radioligand binding assays the activity of compounds of the invention, rat adrenergic α1D receptor obtained from Wistar Rat liver (Garcia-S'ainz, J. et al, Biochem. Biophys. Res. Commun. 186:760, 1992; Michel, A. et al, Br. J. Pharmacol. 98:883, 1989) in a modified Tris-HCl buffer (50 mM Tris-HCl buffer, pH 7.4, 0.5 mM EDTA) was used. Compounds of the invention were incubated with 0.25 nM [^3H]Prazosin for 60 min at 25° C. Non-specific binding was estimated in the presence of 10 μM phentolamine Receptor proteins were filtered and washed, the filters were then counted to determine [^3H]Prazosin specifically bound. […] Compounds of the invention were tested in this biochemical assay and percent inhibition of specific binding was determined.

[2] = target: T2, human recombinant serotonin (5-Hydroxytryptamine) 5-HT5A receptor (Homo sapiens, UniProt P47898); experiment: Serotonin 5-HT5A radioligand binding ([3H]LSD); settings: compound at 0.1 μM; read-out: Inhibition of ligand binding, Serotonin 5-HT5A (percent inhibition of specific binding)
T2 construct: expressed in transfected cells; host or cells: CHO-K1
T2 sequence (P47898 whole entry): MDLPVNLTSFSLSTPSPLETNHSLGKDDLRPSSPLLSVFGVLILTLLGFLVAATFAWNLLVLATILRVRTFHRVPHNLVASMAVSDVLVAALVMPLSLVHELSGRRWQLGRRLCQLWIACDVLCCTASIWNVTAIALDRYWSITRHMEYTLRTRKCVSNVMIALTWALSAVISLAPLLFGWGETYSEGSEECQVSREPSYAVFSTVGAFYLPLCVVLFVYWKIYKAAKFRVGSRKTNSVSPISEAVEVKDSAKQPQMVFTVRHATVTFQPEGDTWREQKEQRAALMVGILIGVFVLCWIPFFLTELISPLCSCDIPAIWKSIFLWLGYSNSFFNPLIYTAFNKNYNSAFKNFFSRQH
Experimental: Compounds of the invention were incubated with 1.7 nM [^3H]Lysergic acid diethylamide (LSD) for 60 min at 37° C. […] Receptor proteins were filtered and washed, the filters were counted to determine [^3H]LSD specifically bound.

[3] = target: T3, human recombinant serotonin (5-Hydroxytryptamine) 5-HT7 receptor (Homo sapiens, UniProt P34969); experiment: Serotonin 5-HT7 radioligand binding ([3H]LSD); settings: compound at 0.1 μM; read-out: Inhibition of ligand binding, Serotonin 5-HT7 (percent inhibition of specific binding)
T3 construct: expressed in transfected cells; host or cells: CHO
T3 sequence (P34969 whole entry): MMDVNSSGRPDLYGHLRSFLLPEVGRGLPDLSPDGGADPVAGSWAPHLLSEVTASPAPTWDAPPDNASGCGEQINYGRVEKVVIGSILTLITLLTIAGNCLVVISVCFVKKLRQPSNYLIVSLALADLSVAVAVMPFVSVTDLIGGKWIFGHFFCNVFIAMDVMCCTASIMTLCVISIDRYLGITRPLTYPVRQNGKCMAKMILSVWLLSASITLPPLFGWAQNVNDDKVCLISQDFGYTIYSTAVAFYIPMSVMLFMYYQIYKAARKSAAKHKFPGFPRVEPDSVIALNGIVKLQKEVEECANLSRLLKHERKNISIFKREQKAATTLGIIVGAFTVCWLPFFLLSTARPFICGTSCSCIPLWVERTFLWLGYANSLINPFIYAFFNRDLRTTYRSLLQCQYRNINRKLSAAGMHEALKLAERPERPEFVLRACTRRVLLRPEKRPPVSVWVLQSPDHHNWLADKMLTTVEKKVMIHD
Experimental: Lysergic acid diethylamide (LSD) for 120 min. at 25° C. […] Receptor proteins were filtered and washed, the filters were then counted to determine [^3H]LSD specifically bound.

[4] = target: T4, human recombinant dopamine D2L receptor (Homo sapiens, UniProt P14416); experiment: Dopamine D2L radioligand binding ([3H]Spiperone); settings: read-out: Dopamine D2L (1 μM), percent inhibition of specific binding; compound at 1 μM; 0.16 nM [3H]Spiperone
T4 construct: expressed in transfected cells; host or cells: CHO
T4 sequence (P14416 whole entry): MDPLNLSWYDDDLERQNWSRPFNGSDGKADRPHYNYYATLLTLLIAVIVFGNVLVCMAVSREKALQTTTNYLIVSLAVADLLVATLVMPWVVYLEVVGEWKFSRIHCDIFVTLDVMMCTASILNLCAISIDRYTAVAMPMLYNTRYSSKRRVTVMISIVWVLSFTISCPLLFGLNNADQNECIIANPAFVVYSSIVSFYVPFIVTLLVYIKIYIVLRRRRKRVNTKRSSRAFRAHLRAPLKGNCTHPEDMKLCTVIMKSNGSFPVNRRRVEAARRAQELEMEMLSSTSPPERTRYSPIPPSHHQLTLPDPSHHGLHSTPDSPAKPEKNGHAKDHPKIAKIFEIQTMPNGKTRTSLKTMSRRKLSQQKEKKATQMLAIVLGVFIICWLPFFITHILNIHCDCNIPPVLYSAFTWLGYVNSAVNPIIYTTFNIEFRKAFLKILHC
Experimental: Non-specific binding was estimated in the presence of 10 μM Haloperidol. Receptor proteins were filtered and washed, the filters were then counted to determine [^3H]Spiperone specifically bound.

[5] = target: T5, human recombinant adrenergic α2A receptor (Homo sapiens, UniProt P08913); experiment: Adrenergic α2A radioligand binding ([3H]MK-912); settings: read-out: Adrenergic (0.1 μM) a2A, percent inhibition of specific binding; compound at 0.1 μM; 1 nM [3H]MK-912
T5 construct: expressed in transfected cells; host or cells: insect Sf9 cells
T5 sequence (P08913 1-465): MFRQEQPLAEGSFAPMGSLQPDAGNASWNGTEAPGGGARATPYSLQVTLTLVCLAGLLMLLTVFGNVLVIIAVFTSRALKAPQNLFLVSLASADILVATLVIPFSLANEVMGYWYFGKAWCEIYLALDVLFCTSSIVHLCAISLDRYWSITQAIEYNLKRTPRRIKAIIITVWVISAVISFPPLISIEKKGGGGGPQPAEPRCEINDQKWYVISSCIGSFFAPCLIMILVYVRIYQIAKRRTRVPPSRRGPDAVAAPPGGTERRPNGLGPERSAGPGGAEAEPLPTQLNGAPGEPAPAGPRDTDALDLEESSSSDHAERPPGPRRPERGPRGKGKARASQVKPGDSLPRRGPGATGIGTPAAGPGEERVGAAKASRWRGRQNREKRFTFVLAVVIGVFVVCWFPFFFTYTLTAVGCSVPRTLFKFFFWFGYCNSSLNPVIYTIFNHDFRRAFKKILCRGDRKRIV
Experimental: To evaluate in radioligand binding assays the activity of compounds of the invention, human recombinant adrenergic α2A receptor expressed in insect Sf9 cells (Uhlen, S. et al, J. Pharmacol. Exp. Ther. 271:1558, 1994) in a modified Tris-HCl buffer (50 mM Tris-HCl, pH 7.4, 12.5 mM MgCl2, 2 mM EDTA) was used. Compounds of invention were incubated with 1 nM [^3H]MK-912 for 60 min at 25° C. MK-912 is (2S-trans)-1,3,4,5′,6,6′,7,12b-octahydro-1′,3′-dimethyl-spiro[2H-benzofuro[2,3-a]quinolizine-2,4′(1′H)-pyrimidin]-2′(3′H)-one hydrochloride Non-specific binding was estimated in the presence of 10 μM WB-4101 (2-(2,6-Dimethoxyphenoxyethyl)aminomethyl-1,4-benzodioxane hydrochloride). Receptor proteins were filtered and washed, the filters were then counted to determine [^3H]MK-912 specifically bound. […] Compounds of the invention were tested in this biochemical assay and percent inhibition of specific binding was determined.

[6] = target: T6, human recombinant serotonin (5-Hydroxytryptamine) 5-HT2A receptor (Homo sapiens, UniProt P28223); experiment: Serotonin 5-HT2A radioligand binding ([3H]Ketanserin); settings: compound at 0.1 μM; read-out: Inhibition of ligand binding, Serotonin 5-HT2A (percent inhibition of specific binding)
T6 construct: expressed in transfected cells; host or cells: CHO-K1
T6 sequence (P28223 whole entry): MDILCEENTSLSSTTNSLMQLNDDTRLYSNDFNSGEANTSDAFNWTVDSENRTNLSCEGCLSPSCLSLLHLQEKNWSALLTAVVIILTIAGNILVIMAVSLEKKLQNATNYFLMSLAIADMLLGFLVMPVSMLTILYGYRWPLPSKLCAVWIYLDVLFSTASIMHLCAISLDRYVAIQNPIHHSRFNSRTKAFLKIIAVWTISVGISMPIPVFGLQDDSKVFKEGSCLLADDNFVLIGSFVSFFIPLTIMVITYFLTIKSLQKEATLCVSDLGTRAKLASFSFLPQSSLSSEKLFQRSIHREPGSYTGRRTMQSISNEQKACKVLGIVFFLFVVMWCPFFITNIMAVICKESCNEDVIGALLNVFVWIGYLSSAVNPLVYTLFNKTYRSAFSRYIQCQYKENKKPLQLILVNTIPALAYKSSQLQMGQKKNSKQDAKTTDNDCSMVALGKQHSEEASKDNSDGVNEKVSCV
Experimental: Compounds of the invention were incubated with 0.5 nM [^3H]Ketanserin for 60 min at 25° C. Non-specific binding was estimated in the presence of 1 μM Mianserin. Receptor proteins were filtered and washed, the filters were then counted to determine [^3H]Ketanserin specifically bound.

[7] = target: T7, human recombinant adrenergic α2B receptor (Homo sapiens, UniProt P18089); experiment: Adrenergic α2B radioligand binding ([3H]Rauwolscine); settings: read-out: Adrenergic (0.1 μM) a2B, percent inhibition of specific binding; compound at 0.1 μM; 2.5 nM [3H]Rauwolscine
T7 construct: expressed in transfected cells; host or cells: CHO-K1
T7 sequence (P18089 1-450): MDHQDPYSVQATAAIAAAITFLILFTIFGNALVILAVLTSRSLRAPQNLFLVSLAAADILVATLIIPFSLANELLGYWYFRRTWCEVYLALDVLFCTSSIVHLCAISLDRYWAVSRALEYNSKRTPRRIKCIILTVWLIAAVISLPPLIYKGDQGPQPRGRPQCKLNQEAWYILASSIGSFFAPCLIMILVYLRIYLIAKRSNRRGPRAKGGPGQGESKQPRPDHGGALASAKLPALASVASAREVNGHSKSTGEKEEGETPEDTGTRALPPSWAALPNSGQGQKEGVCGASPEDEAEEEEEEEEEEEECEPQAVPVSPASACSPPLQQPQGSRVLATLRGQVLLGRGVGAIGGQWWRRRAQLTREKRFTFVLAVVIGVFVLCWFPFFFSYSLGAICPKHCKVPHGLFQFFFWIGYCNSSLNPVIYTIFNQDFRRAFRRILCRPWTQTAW
Experimental: To evaluate in radioligand binding assays the activity of compounds of the invention, human recombinant adrenergic α2B receptor expressed in Chinese hamster ovary (CHO) K1 cells (Uhlen, S. et al, Eur. J. Pharmacol. 343(1):93, 1998) in a modified Tris-HCl buffer (50 mM Tris-HCl, pH 7.4, 12.5 mM MgCl2, 1 mM EDTA, 0.2% BSA) was used. Compounds of the invention were incubated with 2.5 nM [^3H]Rauwolscine for 60 min at 25° C. Non-specific binding was estimated in the presence of 10 μM Prazosin. Receptor proteins were filtered and washed, the filters were then counted to determine [^3H]Rauwolscine specifically bound. […] Compounds of the invention were tested in this biochemical assay and percent inhibition of specific binding was determined.

Row | SMILES | inhibition at 0.1 µM [1] | inhibition at 0.1 µM [2] | inhibition at 0.1 µM [3] | inhibition at 1 µM [4] | inhibition at 0.1 µM [5] | inhibition at 0.1 µM [6] | inhibition at 0.1 µM [7]
1 | Cc1ccc2c(c1)c1c(n2-c2cscc2-c2ccc3c(ccn3C)c2)CCN(C)C1 [Compound 33] | 52% | 93% | 94% | 19% | 100% | 39% | 
2 | Cc1ccc2c(c1)c1c(n2-c2cscc2-c2ccc(C)s2)CCN(C)C1 [Compound No. 79] |  | 93% | 98% | 30% | 92% | 77% | 106%
3 | CNC(=O)c1cccc(-c2ccc(-n3c4c(c5cc(C)ccc53)CN(C)CC4)nc2)c1 [Compound No. 143, 3-(6-(2,8-dimethyl-3,4-dihydro-1H-pyrido[4,3-b]indol-5(2H)-yl)pyridin-3-yl)-N-methylbenzamide] | 83% | 17% | 11% | 19% | 44% | 55% | 77%
4 | Cc1csc(-c2cscc2-n2c3c(c4cc(C)ccc42)CN(C)CC3)c1 [Compound 50] |  | 81% | 97% | 36% | 93% | 86% | 
5 | Cc1ccc2c(c1)c1c(n2-c2ccccc2-c2ccc3c(ccn3C)c2)CCN(C)C1 [Compound No. 85, 2,8-dimethyl-5-(2-(1-methyl-1H-indol-5-yl)phenyl)-2,3,4,5-tetrahydro-1H-pyrido[4,3-b]indole] |  | 50% | 26% | 11% | 94% | 49% | 
6 | Cc1ccc2c(c1)c1c(n2-c2cscc2-c2ccc3cnccc3c2)CCN(C)C1 [Compound No. 68] |  | 78% | 99% | 9% | 90% | 35% | 
7 | Cc1ccc2c(c1)c1c(n2-c2cscc2-c2ccc(S(C)(=O)=O)cc2)CCN(C)C1 [Compound No. 76] |  | 90% | 85% | 11% | 90% | 30% | 
8 | COc1ccc(-c2cscc2-n2c3c(c4cc(C)ccc42)CN(C)CC3)cc1 [Compound 37] |  | 94% | 100% | 18% | 94% | 59% | 
